In ChEMBL document CHEMBL3988442, “University of Dundee, Small-Polar-MMV Screening Library” (2021):
Values joined by “and” are separate entries in the source; they are usually repeats but may differ in a detail not shown here. Identical values can stand only once.

Assays:
[1] = target: T1, Tyrosyl-tRNA synthetase, putative (Trypanosoma cruzi (strain CL Brener), UniProt Q4DSP6); assay: Trypanosoma cruzi tyrosyl tRNA synthetase (TcYRS) _High Tyrosine SOP; format: functional
T1 sequence (Q4DSP6 whole entry): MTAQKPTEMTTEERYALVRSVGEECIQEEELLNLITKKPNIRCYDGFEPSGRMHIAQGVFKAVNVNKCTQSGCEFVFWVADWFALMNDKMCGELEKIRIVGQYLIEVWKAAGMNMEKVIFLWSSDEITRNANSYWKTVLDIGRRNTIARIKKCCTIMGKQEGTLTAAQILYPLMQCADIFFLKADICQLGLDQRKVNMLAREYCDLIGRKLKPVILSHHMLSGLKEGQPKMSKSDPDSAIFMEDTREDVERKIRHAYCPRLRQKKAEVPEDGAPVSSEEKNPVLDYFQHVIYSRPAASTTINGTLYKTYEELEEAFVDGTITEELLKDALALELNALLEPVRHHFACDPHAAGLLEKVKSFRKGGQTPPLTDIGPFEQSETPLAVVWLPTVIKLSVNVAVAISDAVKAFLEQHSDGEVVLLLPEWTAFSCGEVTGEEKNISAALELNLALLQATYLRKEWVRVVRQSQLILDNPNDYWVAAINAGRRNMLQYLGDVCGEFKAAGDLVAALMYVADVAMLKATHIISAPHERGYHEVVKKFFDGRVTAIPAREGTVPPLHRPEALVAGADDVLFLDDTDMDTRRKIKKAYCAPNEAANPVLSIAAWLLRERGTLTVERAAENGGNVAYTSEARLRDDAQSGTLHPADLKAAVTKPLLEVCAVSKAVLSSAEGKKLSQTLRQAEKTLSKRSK

[2] = target: T1, Tyrosyl-tRNA synthetase, putative; assay: Trypanosoma cruzi tyrosyl tRNA synthetase (TcYRS) SOP; format: functional
Histidine--tRNA ligase = target: T2, Histidine--tRNA ligase (Leishmania infantum, UniProt A4I591); assay: Leishmania infantum Histidine tRNA synthetase (LdHisRS); format: functional
T2 sequence (A4I591 whole entry): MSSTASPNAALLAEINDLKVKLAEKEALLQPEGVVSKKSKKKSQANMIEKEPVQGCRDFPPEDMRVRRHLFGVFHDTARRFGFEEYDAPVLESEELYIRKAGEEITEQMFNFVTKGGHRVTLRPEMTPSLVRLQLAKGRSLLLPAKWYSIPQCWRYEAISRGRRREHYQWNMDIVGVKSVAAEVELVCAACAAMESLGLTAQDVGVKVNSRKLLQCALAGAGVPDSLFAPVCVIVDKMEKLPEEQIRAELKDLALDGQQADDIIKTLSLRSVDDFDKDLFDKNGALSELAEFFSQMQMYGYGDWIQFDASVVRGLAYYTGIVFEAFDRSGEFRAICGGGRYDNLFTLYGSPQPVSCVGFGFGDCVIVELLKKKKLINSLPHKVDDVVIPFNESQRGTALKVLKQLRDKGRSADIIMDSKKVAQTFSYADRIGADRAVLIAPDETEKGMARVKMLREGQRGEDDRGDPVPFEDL

Lysine--tRNA ligase = Lysine--tRNA ligase (Plasmodium falciparum (isolate 3D7), UniProt Q8IDJ8); assay: Pf-KRS-1 (Lysyl-RNA Synthetase-1, KRS-1, cytosolic KRS) from Plasmodium falciparum. Inhibitor assay, 384 well plate, luminescence read.; format: functional
Chain of Lysine--tRNA ligase (Q8IDJ8 whole entry): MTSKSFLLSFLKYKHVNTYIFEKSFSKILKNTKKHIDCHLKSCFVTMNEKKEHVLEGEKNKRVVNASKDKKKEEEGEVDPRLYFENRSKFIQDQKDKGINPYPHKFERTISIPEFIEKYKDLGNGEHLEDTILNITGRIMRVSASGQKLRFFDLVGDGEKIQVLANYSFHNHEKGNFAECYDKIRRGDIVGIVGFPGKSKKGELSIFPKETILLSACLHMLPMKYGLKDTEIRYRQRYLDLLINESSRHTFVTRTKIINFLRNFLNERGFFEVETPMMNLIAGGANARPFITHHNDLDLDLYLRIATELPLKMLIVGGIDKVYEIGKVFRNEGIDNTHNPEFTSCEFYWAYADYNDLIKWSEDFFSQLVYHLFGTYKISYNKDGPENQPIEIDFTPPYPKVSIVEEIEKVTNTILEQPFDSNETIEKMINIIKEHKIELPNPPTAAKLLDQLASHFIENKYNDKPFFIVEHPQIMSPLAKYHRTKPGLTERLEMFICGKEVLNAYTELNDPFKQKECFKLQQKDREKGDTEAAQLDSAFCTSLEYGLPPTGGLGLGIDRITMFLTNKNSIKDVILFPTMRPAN

[3] = target: T3, Aspartate--tRNA(Asp/Asn) ligase (Mycobacterium tuberculosis (strain ATCC 25618 / H37Rv), UniProt P9WFW3); assay: Assay for Asp RNA synthetase-1 from Mycobacterium tuberculosis; format: functional
T3 sequence (P9WFW3 whole entry): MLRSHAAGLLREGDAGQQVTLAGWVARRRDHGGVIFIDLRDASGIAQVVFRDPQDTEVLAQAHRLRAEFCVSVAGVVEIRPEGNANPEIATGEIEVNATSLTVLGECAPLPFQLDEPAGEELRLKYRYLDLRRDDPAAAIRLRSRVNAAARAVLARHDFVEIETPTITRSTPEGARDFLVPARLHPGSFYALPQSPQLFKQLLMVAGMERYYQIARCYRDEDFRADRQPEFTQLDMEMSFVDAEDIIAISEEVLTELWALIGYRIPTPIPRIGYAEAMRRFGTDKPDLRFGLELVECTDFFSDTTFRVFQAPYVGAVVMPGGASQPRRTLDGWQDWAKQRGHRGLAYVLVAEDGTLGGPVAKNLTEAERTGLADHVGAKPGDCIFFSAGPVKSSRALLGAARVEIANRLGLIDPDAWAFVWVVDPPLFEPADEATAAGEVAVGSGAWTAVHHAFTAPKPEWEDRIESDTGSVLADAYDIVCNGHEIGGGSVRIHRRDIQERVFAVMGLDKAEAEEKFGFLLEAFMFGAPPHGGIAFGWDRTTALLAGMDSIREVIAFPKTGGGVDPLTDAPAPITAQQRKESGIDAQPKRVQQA

[4] = target: T4, Ubiquitin-activating enzyme e1, putative (Leishmania donovani (strain BPK282A1), UniProt E9BSI1); assay: Leishmania donovani Ubiquitin Activating Enzyme (LdE1); format: functional
T4 sequence (E9BSI1 whole entry): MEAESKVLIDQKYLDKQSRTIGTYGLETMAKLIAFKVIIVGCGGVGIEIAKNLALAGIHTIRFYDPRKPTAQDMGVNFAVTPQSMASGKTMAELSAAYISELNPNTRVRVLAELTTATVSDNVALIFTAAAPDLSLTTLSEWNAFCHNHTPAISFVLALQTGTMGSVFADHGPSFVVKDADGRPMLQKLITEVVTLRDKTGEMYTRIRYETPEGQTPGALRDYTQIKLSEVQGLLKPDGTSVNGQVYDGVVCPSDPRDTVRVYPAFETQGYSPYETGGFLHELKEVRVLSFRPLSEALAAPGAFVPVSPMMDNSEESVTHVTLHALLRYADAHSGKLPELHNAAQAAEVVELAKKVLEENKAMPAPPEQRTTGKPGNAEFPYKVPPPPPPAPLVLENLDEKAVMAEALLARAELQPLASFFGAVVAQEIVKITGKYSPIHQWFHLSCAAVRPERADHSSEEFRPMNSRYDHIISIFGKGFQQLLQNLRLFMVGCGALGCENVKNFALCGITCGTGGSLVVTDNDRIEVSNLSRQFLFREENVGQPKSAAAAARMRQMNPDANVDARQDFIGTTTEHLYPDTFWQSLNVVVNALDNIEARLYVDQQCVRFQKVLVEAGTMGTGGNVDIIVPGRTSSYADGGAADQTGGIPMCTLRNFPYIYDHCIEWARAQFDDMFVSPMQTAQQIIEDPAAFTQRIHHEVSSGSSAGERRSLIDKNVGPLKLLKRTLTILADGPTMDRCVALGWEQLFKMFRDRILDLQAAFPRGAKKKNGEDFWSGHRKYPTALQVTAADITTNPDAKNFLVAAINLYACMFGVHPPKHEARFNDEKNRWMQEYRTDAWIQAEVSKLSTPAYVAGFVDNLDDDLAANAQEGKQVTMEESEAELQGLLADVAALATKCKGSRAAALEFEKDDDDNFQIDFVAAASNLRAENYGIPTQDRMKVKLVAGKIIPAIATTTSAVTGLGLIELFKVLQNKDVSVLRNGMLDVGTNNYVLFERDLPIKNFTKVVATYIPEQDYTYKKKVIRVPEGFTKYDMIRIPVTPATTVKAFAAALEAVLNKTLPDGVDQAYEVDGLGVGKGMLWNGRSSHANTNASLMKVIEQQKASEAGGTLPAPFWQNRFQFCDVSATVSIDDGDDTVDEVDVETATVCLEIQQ

Proteasome subunit beta = target: T5, Proteasome subunit beta (Trypanosoma cruzi, UniProt O96673); assay: Trypanosoma cruzi proteasome chymotrypsin-like activity (TcProtChymo) assay.; format: functional
T5 sequence (O96673 whole entry): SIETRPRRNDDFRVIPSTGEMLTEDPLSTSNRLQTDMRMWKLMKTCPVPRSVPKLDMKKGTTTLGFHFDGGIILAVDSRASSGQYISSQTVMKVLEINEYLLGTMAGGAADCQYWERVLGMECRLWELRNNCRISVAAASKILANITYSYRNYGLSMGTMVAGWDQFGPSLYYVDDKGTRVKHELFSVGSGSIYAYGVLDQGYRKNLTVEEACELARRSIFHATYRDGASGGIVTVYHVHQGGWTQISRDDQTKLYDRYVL

[5] = Trypanosoma cruzi proteasome luciferase counter-screen; format: functional, N/A

Structure (SMILES) | IC50 [1] | IC50 [2] | IC50 (Histidine--tRNA ligase) | also measured
CC(C)NC(=O)N1CCN(CC2CC2)CC2(CC(=O)N(C)C2)C1 (stereo unspecified) | > 100 µM | > 100 µM | – | –
Fc1cccc(Oc2ccc(CNCC3CNc4ccnn4C3)cn2)c1 (stereo unspecified) | > 100 µM | > 100 µM | > 100 µM | –
Cn1nc2c(cc1=O)CN(Cc1nc(C(C)(C)C)no1)CC2 | – | – | 25.4 µM and 17.9 µM | IC50 (Lysine--tRNA ligase): > 50.1 µM; IC50 [3]: > 100 µM
Cc1ccc(-c2nc(CN3CCc4nn(C)c(=O)cc4C3)co2)cc1 | – | – | 14.2 µM and 25.1 µM | IC50 [4]: > 100 µM; IC50 [3]: > 100 µM and 52.7 µM
CN1CCc2nc(C3CCN(C(=O)CCC4CCCC4)CC3)ncc2C1 | 45.5 µM and 43.7 µM | 46.4 µM and 43.1 µM | – | IC50 (Proteasome subunit beta): > 100 µM; pIC50 [5]: < 4
Fc1ccc(OCc2noc(CN3CCc4cncnc4C3)n2)cc1 | > 100 µM | > 100 µM | 49.6 µM and 74.9 µM | –
O=C(NCc1ccccc1)N1CCC2(CC(=O)N(c3ccsc3)C2)C1 (stereo unspecified) | > 100 µM | > 100 µM | – | –
Cc1cc(C)n(C2CN(CC(=O)N(C)Cc3ccc(C)o3)C2)n1 | 79.3 µM and 74.7 µM | 75.8 µM and 72.1 µM | – | –
CNC(=O)C1(c2cnccn2)CCCN1C(=O)c1ccn(C)n1 (stereo unspecified) | > 100 µM | > 100 µM | – | –
COc1ccc(C2SC(C)=Nc3c2c(=O)[nH]n3C2CCCCC2)cc1O (stereo unspecified) | > 100 µM | > 100 µM | – | –
CNC(=O)[C@H]1CCS(=O)(=O)[C@@H]2CN(Cc3ccc(OC)cc3)C[C@H]12 | > 100 µM | > 100 µM | – | –
CN(CCCOc1ccccc1)C(=O)CN1CCc2cncnc2C1 | > 100 µM | > 100 µM | 44 µM and 39.2 µM | –
